From US20240376100A1 (Redona Therapeutics, Inc., priority 2021, published 2024)

Biological target: PAPD5 enzyme (Homo sapiens, UniProt Q8NDF8)
Experiment: PAPD5 assay (AMP incorporation onto 3'-terminus of RNA substrate, fluorescence quench)
Type: biochemical
Settings: PAPD5 protein 0.3 nM, ATP 50 μM, 30 minutes preincubation, room temperature; read-out: Potency PAPD5 IC50
Method in brief: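 Enzyme at 0.3 nM with 50 μM ATP, pH 7.3 HEPES buffer, preincubated with compound 30 minutes at room temperature; 5 nM 5′-fluorescein RNA substrate and 20 nM TAMRA quench probe then added. Initial rates from kinetic fluorescein decrease over ~90 minutes; IC50 by four-parameter fit.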

Chain of PAPD5 enzyme (Q8NDF8 whole entry): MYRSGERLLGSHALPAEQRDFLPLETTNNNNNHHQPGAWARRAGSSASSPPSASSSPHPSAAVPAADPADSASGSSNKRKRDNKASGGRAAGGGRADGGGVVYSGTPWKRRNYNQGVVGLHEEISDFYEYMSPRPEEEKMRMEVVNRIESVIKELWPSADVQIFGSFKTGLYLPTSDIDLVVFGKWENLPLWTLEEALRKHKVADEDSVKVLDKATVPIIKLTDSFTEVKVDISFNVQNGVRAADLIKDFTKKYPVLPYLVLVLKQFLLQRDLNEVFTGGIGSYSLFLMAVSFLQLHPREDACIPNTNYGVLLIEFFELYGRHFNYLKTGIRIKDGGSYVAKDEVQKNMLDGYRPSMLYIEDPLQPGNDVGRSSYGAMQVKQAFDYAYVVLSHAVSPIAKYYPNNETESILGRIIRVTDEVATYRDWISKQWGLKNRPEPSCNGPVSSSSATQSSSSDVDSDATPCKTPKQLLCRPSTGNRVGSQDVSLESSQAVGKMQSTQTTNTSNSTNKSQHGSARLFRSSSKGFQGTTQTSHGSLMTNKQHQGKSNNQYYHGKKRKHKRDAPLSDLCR

Structure (SMILES) | IC50
Cc1cc(NC(=O)OC(C)(C)C)ncc1-n1cc(C(=O)O)c(=O)c2ccc(N3Cc4cccnc4C3)c(F)c21 [Example 156, 1-(6-((tert-butoxycarbonyl)amino)-4-methylpyridin-3-yl)-7-(5,7-dihydro-6H-pyrrolo[3,4-b]pyridin-6-yl)-8-fluoro-4-oxo-1,4-dihydroquinoline-3-carboxylic acid] | ≤ 1000 nM
Cc1cc(N)ncc1-n1cc(C(=O)O)c(=O)c2cc(Cl)c(N3Cc4ccccc4C3)nc21 [Example 157, 1-(6-amino-4-methylpyridin-3-yl)-6-chloro-7-(isoindolin-2-yl)-4-oxo-1,4-dihydro-1,8-naphthyridine-3-carboxylic acid] | ≤ 1000 nM
Cc1cc(N)ncc1-n1cc(C(=O)O)c(=O)c2cc(Cl)c(N3Cc4cccc(F)c4C3)nc21 [Example 158, 1-(6-amino-4-methylpyridin-3-yl)-6-chloro-7-(4-fluoroisoindolin-2-yl)-4-oxo-1,4-dihydro-1,8-naphthyridine-3-carboxylic acid] | ≤ 1000 nM
Cc1cc(N)ncc1-n1cc(C(=O)O)c(=O)c2cc(Cl)c(N3Cc4ccncc4C3)nc21 [Example 159, 1-(6-amino-4-methylpyridin-3-yl)-6-chloro-7-(1,3-dihydro-2H-pyrrolo[3,4-c]pyridin-2-yl)-4-oxo-1,4-dihydro-1,8-naphthyridine-3-carboxylic acid] | ≤ 1000 nM
Cc1cc(N)ncc1-n1cc(C(=O)O)c(=O)c2cc(Cl)c(N3Cc4ccc(F)cc4C3)nc21 [Example 160, 1-(6-amino-4-methylpyridin-3-yl)-6-chloro-7-(5-fluoroisoindolin-2-yl)-4-oxo-1,4-dihydro-1,8-naphthyridine-3-carboxylic acid] | ≤ 1000 nM
COc1ccc2c(c1)CN(c1nc3c(cc1Cl)c(=O)c(C(=O)O)cn3-c1cnc(N)cc1C)C2 [Example 161, 1-(6-amino-4-methylpyridin-3-yl)-6-chloro-7-(5-methoxyisoindolin-2-yl)-4-oxo-1,4-dihydro-1,8-naphthyridine-3-carboxylic acid] | ≤ 1000 nM
Cc1cc(N)ncc1-n1cc(C(=O)O)c(=O)c2cc(Cl)c(-n3ccc(N(C)C)n3)nc21 [Example 162, 1-(6-amino-4-methylpyridin-3-yl)-6-chloro-7-(3-(dimethylamino)-1H-pyrazol-1-yl)-4-oxo-1,4-dihydro-1,8-naphthyridine-3-carboxylic acid] | ≤ 1000 nM
Cc1cc(NC(=O)OC(C)(C)C)ncc1-n1cc(C(=O)O)c(=O)c2cc(Cl)c(-n3cccn3)nc21 [Example 164, 1-(6-((tert-butoxycarbonyl)amino)-4-methylpyridin-3-yl)-6-chloro-4-oxo-7-(1H-pyrazol-1-yl)-1,4-dihydro-1,8-naphthyridine-3-carboxylic acid] | ≤ 1000 nM
Cc1cc(NC(=O)OC(C)(C)C)ncc1-n1cc(C(=O)O)c(=O)c2cc(Cl)c(N3Cc4ccccc4C3)nc21 [Example 165, 1-(6-((tert-butoxycarbonyl)amino)-4-methylpyridin-3-yl)-6-chloro-7-(isoindolin-2-yl)-4-oxo-1,4-dihydro-1,8-naphthyridine-3-carboxylic acid] | ≤ 1000 nM
Cc1cc(NC(=O)OC(C)(C)C)ncc1-n1cc(C(=O)O)c(=O)c2cc(Cl)c(N3Cc4cccc(F)c4C3)nc21 [Example 166, 1-(6-((tert-butoxycarbonyl)amino)-4-methylpyridin-3-yl)-6-chloro-7-(4-fluoroisoindolin-2-yl)-4-oxo-1,4-dihydro-1,8-naphthyridine-3-carboxylic acid] | ≤ 1000 nM
Cc1cc(NC(=O)OC(C)(C)C)ncc1-n1cc(C(=O)O)c(=O)c2cc(Cl)c(N3Cc4ccncc4C3)nc21 [Example 167, 1-(6-((tert-butoxycarbonyl)amino)-4-methylpyridin-3-yl)-6-chloro-7-(1,3-dihydro-2H-pyrrolo[3,4-c]pyridin-2-yl)-4-oxo-1,4-dihydro-1,8-naphthyridine-3-carboxylic acid] | ≤ 1000 nM
CNc1cc(C)c(-n2cc(C(=O)O)c(=O)c3cc(Cl)c(N4Cc5cccnc5C4)nc32)cn1 [Example 170, 6-chloro-7-(5,7-dihydro-6H-pyrrolo[3,4-b]pyridin-6-yl)-1-(4-methyl-6-(methylamino)pyridin-3-yl)-4-oxo-1,4-dihydro-1,8-naphthyridine-3-carboxylic acid] | ≤ 1000 nM
CNCCNc1cc(C)c(-n2cc(C(=O)O)c(=O)c3cc(Cl)c(N4Cc5cccnc5C4)nc32)cn1 [Example 171, 6-chloro-7-(5,7-dihydro-6H-pyrrolo[3,4-b]pyridin-6-yl)-1-(4-methyl-6-((2-(methylamino)ethyl)amino)pyridin-3-yl)-4-oxo-1,4-dihydro-1,8-naphthyridine-3-carboxylic acid] | ≤ 1000 nM
Cc1cc(NCCN2CCCCC2)ncc1-n1cc(C(=O)O)c(=O)c2cc(Cl)c(N3Cc4cccnc4C3)nc21 [Example 172, 6-chloro-7-(5,7-dihydro-6H-pyrrolo[3,4-b]pyridin-6-yl)-1-(4-methyl-6-((2-(piperidin-1-yl)ethyl)amino)pyridin-3-yl)-4-oxo-1,4-dihydro-1,8-naphthyridine-3-carboxylic acid] | ≤ 1000 nM
Cc1cc(NC(=O)C2CCC2)ncc1-n1cc(C(=O)O)c(=O)c2cc(Cl)c(N3Cc4cccnc4C3)nc21 [Example 174, 6-chloro-1-(6-(cyclobutanecarboxamido)-4-methylpyridin-3-yl)-7-(5,7-dihydro-6H-pyrrolo[3,4-b]pyridin-6-yl)-4-oxo-1,4-dihydro-1,8-naphthyridine-3-carboxylic acid] | ≤ 1000 nM
Cc1cc(NC(=O)OC(C)(C)C)ncc1-n1cc(C(=O)O)c(=O)c2cc(Cl)c(N3CCc4ccccc4C3)nc21 [Example 175, 1-(6-((tert-butoxycarbonyl)amino)-4-methylpyridin-3-yl)-6-chloro-7-(3,4-dihydroisoquinolin-2(1H)-yl)-4-oxo-1,4-dihydro-1,8-naphthyridine-3-carboxylic acid] | ≤ 1000 nM
Cc1cc(N)ncc1-n1cc(C(=O)O)c(=O)c2cc(Cl)c(N3CCc4ccccc4C3)nc21 [Example 176, 1-(6-amino-4-methylpyridin-3-yl)-6-chloro-7-(3,4-dihydroisoquinolin-2(1H)-yl)-4-oxo-1,4-dihydro-1,8-naphthyridine-3-carboxylic acid] | ≤ 1000 nM
Cc1cc(N(C)CCN2CCCCC2)ncc1-n1cc(C(=O)O)c(=O)c2cc(Cl)c(N3Cc4cccnc4C3)nc21 [Example 177, 6-chloro-7-(5,7-dihydro-6H-pyrrolo[3,4-b]pyridin-6-yl)-1-(4-methyl-6-(methyl(2-(piperidin-1-yl)ethyl)amino)pyridin-3-yl)-4-oxo-1,4-dihydro-1,8-naphthyridine-3-carboxylic acid] | ≤ 1000 nM
COc1cccc2c1CN(c1nc3c(cc1Cl)c(=O)c(C(=O)O)cn3-c1cnc(N)cc1C)C2 [Example 178, 1-(6-amino-4-methylpyridin-3-yl)-6-chloro-7-(4-methoxyisoindolin-2-yl)-4-oxo-1,4-dihydro-1,8-naphthyridine-3-carboxylic acid] | ≤ 1000 nM
Cc1cc(N)ncc1-n1cc(C(=O)O)c(=O)c2cc(Cl)c(N3Cc4cncnc4C3)nc21 [Example 179, 1-(6-amino-4-methylpyridin-3-yl)-6-chloro-7-(5,7-dihydro-6H-pyrrolo[3,4-d]pyrimidin-6-yl)-4-oxo-1,4-dihydro-1,8-naphthyridine-3-carboxylic acid] | ≤ 1000 nM
Cc1cc(N)ncc1-n1cc(C(=O)O)c(=O)c2cc(Cl)c(N3CCc4cccnc4C3)nc21 [Example 180, 1-(6-amino-4-methylpyridin-3-yl)-6-chloro-7-(5,8-dihydro-1,7-naphthyridin-7(6H)-yl)-4-oxo-1,4-dihydro-1,8-naphthyridine-3-carboxylic acid] | ≤ 1000 nM
Cc1cc(N)ncc1-n1cc(C(=O)O)c(=O)c2cc(F)c(N3CCc4ccccc4C3)cc21 [Example 181, 1-(6-amino-4-methylpyridin-3-yl)-7-(3,4-dihydroisoquinolin-2(1H)-yl)-6-fluoro-4-oxo-1,4-dihydroquinoline-3-carboxylic acid] | ≤ 1000 nM
Cc1cc(NC(=O)OC(C)(C)C)ncc1-n1cc(C(=O)O)c(=O)c2cc(Cl)c(N3CCc4cccnc4C3)nc21 [Example 182, 1-(6-((tert-butoxycarbonyl)amino)-4-methylpyridin-3-yl)-6-chloro-7-(5,8-dihydro-1,7-naphthyridin-7(6H)-yl)-4-oxo-1,4-dihydro-1,8-naphthyridine-3-carboxylic acid] | ≤ 1000 nM
Cc1cc(N2CCC2)ncc1-n1cc(C(=O)O)c(=O)c2cc(F)c(N3Cc4cccnc4C3)nc21 [Example 183, 1-(6-(azetidin-1-yl)-4-methylpyridin-3-yl)-7-(5,7-dihydro-6H-pyrrolo[3,4-b]pyridin-6-yl)-6-fluoro-4-oxo-1,4-dihydro-1,8-naphthyridine-3-carboxylic acid] | ≤ 1000 nM
Cc1cc(NC(=O)OC(C)(C)C)ncc1-n1cc(C(=O)O)c(=O)c2cc(F)c(N3CCc4ccccc4C3)cc21 [Example 184, 1-(6-((tert-butoxycarbonyl)amino)-4-methylpyridin-3-yl)-7-(3,4-dihydroisoquinolin-2(1H)-yl)-6-fluoro-4-oxo-1,4-dihydroquinoline-3-carboxylic acid] | ≤ 1000 nM
Cc1cc(N)ncc1-n1cc(C(=O)O)c(=O)c2cc(Cl)c(N3CCc4ccncc4C3)nc21 [Example 185, 1-(6-amino-4-methylpyridin-3-yl)-6-chloro-7-(3,4-dihydro-2,7-naphthyridin-2(1H)-yl)-4-oxo-1,4-dihydro-1,8-naphthyridine-3-carboxylic acid] | ≤ 1000 nM
Cc1cc(N)ncc1-n1cc(C(=O)O)c(=O)c2cc(Cl)c(N3CCc4ncccc4C3)nc21 [Example 186, 1-(6-amino-4-methylpyridin-3-yl)-6-chloro-7-(7,8-dihydro-1,6-naphthyridin-6(5H)-yl)-4-oxo-1,4-dihydro-1,8-naphthyridine-3-carboxylic acid] | ≤ 1000 nM
